Source: patent US11117902B2, “Selective estrogen receptor degraders” (Eli Lilly and Company, priority 2018, dated 2021)

Key:
[1] = target: ERα receptor (Homo sapiens (Human), UniProt P03372); assay: PRα induction assay in MCF7 cells (ERα agonism); type: cell-based; conditions: MCF7 breast cancer cells
Experimental: PRα Induction Assay in MCF7 Cells
The purpose of the following PRα induction assay is to determine whether a test compound has agonistic activity against ERα receptor (an agonist would be expected to activate the receptor).
Culture MCF7 (purchased from ATCC HTB-22) in DMEM media supplemented with 10% FBS, 0.01 mg/mL human insulin 1 and 1% penicillin/streptomycin antibiotics and plate the cells (prior to becoming 70% confluent) in 384-well flat-bottom plates at a density of 4,000 cells per well in 20 μL volume in DMEM phenol red free media containing 10% FBS (charcoal stripped). Incubate the cells overnight in a cell culture incubator (5% CO2, 95% relative humidity at 37° C.) and allow the cells to attach to the plate. The following day, dose the cells with test compound. Use an Echo 555 acoustic dispenser to prepare compound serial dilutions (1:3) in a range from 6 μM to 0.0003 μM. Dose the cells with the addition of the test compound (5 μL) from the serial dilution plate to the cell plate producing a final DMSO concentration of 0.2% with a final concentration of the test compound dose range between 2 and 0.0001 μM. For the maximum point use media containing 0.2% of DMSO and for the minimum point, use fulvestrant diluted at […] final concentrations in the growth media containing 0.2% DMSO. After dosing with the test compound, incubate the cell plates at 37° C. and 5% CO2 for 24 hours. Fix the cells by adding 14% para-formaldehyde (10 μL) for 30 minutes at room temperature. Wash cells once with PBS (20 μL) and incubate with PBS (20 μL) containing 0.5% (v/v) TWEEN® 20 for 1 hour. […]
The following day, wash cells with PBS 0.05% TWEEN® 20 (2×20 μL) and incubate with secondary antibody (20 μL/well) (1:1000 dilution, Goat anti-rabbit IgM ALEXA FLUOR™ 488) in PBS 1% BSA for 105 minutes at room temperature. […] Scan plates with ACUMEN EXPLORER™ [Laser-scanning fluorescence microplate cytometer manufactured by TTP LABTECH LTD] to measure PRα. […]

[2] = Rat oral bioavailability assay; type: in vivo; conditions: plasma, Sprague-Dawley rats, IV 1 mg/kg, PO 10 mg/kg, read-out: oral bioavailability (% F)
Experimental: Rat Oral Bioavailability Assay
Administer the test compound to Sprague-Dawley rats IV at 1 mg/kg (using vehicles of either: 20% CAPTISOL® in 25 mM sodium phosphate buffer, pH2 quantum satis; or 25% DMA, 15% EtOH, 10% propylene glycol, 25% 2-pyrrolidone, and 25% purified water) and PO at 10 mg/kg (using a vehicle of 1% hydroxyethyl cellulose, 0.25% polysorbate 80, 0.05% Antifoam 1510-US, and purified water quantum satis). Collect serial blood samples at 0.08, 0.25, 0.5, 1, 2, 4, 8, and 12 hours post dose for IV bolus and at 0.25, 0.5, 1, 2, 4, 8, and 12 hours post dose after oral administration. After treatment with an EDTA […], obtain plasma by centrifugation and store at −70° C. until analysis by LC-MS/MS. Determine the test compound concentration in plasma and upload into the Watson LIMS™ system where noncompartmental analysis is used to calculate Area Under the Curve (AUC) for both IV and PO arms. Calculate oral bioavailability (% F) via the following equation, % F=(AUCPO×DoseIV)/(AUCIV×DosePO)×100.

Chain of ERα receptor (P03372 whole entry): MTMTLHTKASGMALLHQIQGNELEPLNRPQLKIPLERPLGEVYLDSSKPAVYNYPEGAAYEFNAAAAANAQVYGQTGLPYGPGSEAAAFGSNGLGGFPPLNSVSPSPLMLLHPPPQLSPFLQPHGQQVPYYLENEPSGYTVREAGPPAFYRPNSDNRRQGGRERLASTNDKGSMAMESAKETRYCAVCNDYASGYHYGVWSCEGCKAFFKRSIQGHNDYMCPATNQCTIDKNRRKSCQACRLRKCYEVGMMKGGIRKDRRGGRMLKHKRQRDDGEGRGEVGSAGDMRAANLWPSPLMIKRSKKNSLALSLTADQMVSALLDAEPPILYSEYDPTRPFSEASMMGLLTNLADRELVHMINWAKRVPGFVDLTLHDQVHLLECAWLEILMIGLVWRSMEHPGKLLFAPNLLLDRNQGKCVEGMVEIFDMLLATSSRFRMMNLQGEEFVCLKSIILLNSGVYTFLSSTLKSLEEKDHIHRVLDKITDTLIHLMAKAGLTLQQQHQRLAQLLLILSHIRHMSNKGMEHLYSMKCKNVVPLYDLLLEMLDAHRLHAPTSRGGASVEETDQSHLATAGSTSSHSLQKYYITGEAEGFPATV

Oc1ccc2c3c(cnc2c1)-c1ccc(C(F)(F)F)cc1OC3c1ccc(OCCN2CC(CF)C2)cc1 (single isomer, unassigned; isomer 2) [Example 1B, 5-(4-{2-[3-(Fluoromethyl)azetidin-1-yl]ethoxy}phenyl)-8-(trifluoromethyl)-5H-[1]benzopyrano[4,3-c]quinolin-2-ol, Isomer 2]
agonistic activity (PRα induction) [1]: no significant agonistic activity
bioavailability [2]: ~50%

Oc1ccc2c3c(cnc2c1)-c1ccc(C(F)(F)F)cc1OC3c1ccc(OCCN2CC(CF)C2)cc1 (racemic) [Example 1, Racemic 5-(4-{2-[3-(Fluoromethyl)azetidin-1-yl]ethoxy}phenyl)-8-(trifluoromethyl)-5H-[1]benzopyrano[4,3-c]quinolin-2-ol]
agonistic activity (PRα induction) [1]: no significant agonistic activity

Oc1ccc2c3c(cnc2c1)-c1ccc(C(F)(F)F)cc1OC3c1ccc(OCCN2CC(CF)C2)cc1 (single isomer, unassigned; isomer 1) [Example 1A, 5-(4-{2-[3-(Fluoromethyl)azetidin-1-yl]ethoxy}phenyl)-8-(trifluoromethyl)-5H-[1]benzopyrano[4,3-c]quinolin-2-ol, Isomer 1]
agonistic activity (PRα induction) [1]: no significant agonistic activity
